Test results from PubChem BioAssay (NCI).
“And” between values parts separate entries of the source, which are not always exact repeats. Equal entries are not always repeated.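 Results reflect a 48-hour exposure of cells in 96-well plates to compound at five concentrations. Here, GI50 denotes the concentration required for 50% inhibition of growth. TGI: concentration producing complete growth inhibition.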 *1 amine or outer side, *2 acyl side, *3 side chain or, on linkers, in order; H or OH if unused. Where a SMILES comes first, the peptide text is derived from it. Bridges are numbered along the chain shown (N, C = ends). Roman numbers before positions name the chains, in order. [ ]: non-standard residue; d: D form. Actinocin(9to1) = Cc1c2oc3c(C)ccc(C(=O)[*:1])c3nc-2c(C(=O)[*:2])c(N)c1=O; NMeT = CN[CH](C(=O)O)[CH](C)O; Sar = CNCC(=O)O

Legend:
Assay in all cases: NCI-60 cell line screen, 48 h
SNB-19 CNS = tested on: SNB-19 CNS
MOLT-4 leukemia = tested on: MOLT-4 leukemia
SF-268 CNS = tested on: SF-268 CNS
OVCAR-5 ovarian = tested on: OVCAR-5 ovarian
LOX IMVI melanoma = tested on: LOX IMVI melanoma
MDA-MB-231 breast = tested on: MDA-MB-231 breast
HCT-116 colon = tested on: HCT-116 colon
MDA-MB-435 = tested on: MDA-MB-435
UACC-62 melanoma = tested on: UACC-62 melanoma
BT-549 breast = tested on: BT-549 breast

Compound	TGI (SNB-19 CNS) [µM]	TGI (MOLT-4 leukemia)	TGI (SF-268 CNS) [µM]	TGI (OVCAR-5 ovarian) [µM]	TGI (LOX IMVI melanoma)	GI50 (SNB-19 CNS)	GI50 (OVCAR-5 ovarian)	GI50 (MDA-MB-231 breast)	TGI (MDA-MB-231 breast) [µM]	TGI (HCT-116 colon) [µM]	GI50 (MDA-MB-435)	TGI (MDA-MB-435)	TGI (UACC-62 melanoma) [µM]	GI50 (MOLT-4 leukemia) [µM]	GI50 (SF-268 CNS) [µM]	GI50 (HCT-116 colon) [µM]	GI50 (LOX IMVI melanoma) [µM]	GI50 (UACC-62 melanoma) [µM]	GI50 (BT-549 breast) [µM]	TGI (BT-549 breast) [µM]
CC1=C(C(=O)Nc2cc(=O)n(C)c(=O)n2C)C(c2cccc([N+](=O)[O-])c2)C(C(=O)Nc2cc(=O)n(C)c(=O)n2C)=C(C)N1	> 100	> 100 µM	> 100	> 100	> 100 µM	–	–	–	–	–	–	–	–	–	–	–	–	–	–	–
Cc1c2oc3c(C)ccc(C(=O)NC4C(=O)NC(C(C)C)C(=O)N5CCCC5C(=O)N(C)CC(=O)N(C)C(C(C)O)C(=O)OC4C)c3nc-2c(C(=O)NC2C(=O)NC(C(C)C)C(=O)N3CCCC3C(=O)N(C)CC(=O)N(C)C(C(C)O)C(=O)OC2C)c(N)c1=O (stereo not given) (I: TVP[Sar][NMeT] / II: TVP[Sar][NMeT]; ester I:1-I:C, II:1-II:C; linker I:N-II:N via Actinocin(9to1); configuration not given here)	> 100	11.1 µM and > 1 µM	> 63	> 43.4	7.84 µM and > 1 µM	2.3 µM and 0.572 µM	4.29 µM and > 1 µM	3.53 µM and > 1 µM	> 69.9	> 100	2.11 µM and > 1 µM	21 µM and > 1 µM	1.54	–	–	–	–	–	–	–
CCOC(=O)N1c2c(ccn2C)-c2ccn(C)c2N1C(=O)OCC	–	40.4 µM	38.7	35.5	25.6 µM	–	–	–	–	29.4	–	–	31.3	–	–	–	–	–	–	–
Cc1ccc(NC2=C(Cl)C(=O)N(Cc3ccc(Cl)cc3)C2=O)cc1O	39	> 100 µM	21.2	–	32.1 µM	10.8 µM	–	9.75 µM	32.4	29	4.45 µM	26.2 µM	39.4	> 100	5.07	6.57	4.09	17.5	–	–
O=C(O)NC(c1ccccc1)C(NC(=O)c1ccccc1)c1ccccc1 (stereo not given)	> 100	–	> 100	> 100	> 100 µM	–	–	–	–	> 100	–	–	> 100	–	–	–	–	–	–	–
COc1cc(OC)c(SSCCCCS(=O)O)c(OC)c1	34.1	26.8 µM	44	30.5	29 µM	–	–	–	–	29.9	–	–	27.9	–	–	–	–	–	–	–
C/C=C1\C=C(OC)CN(CCc2c[nH]c3ccccc23)C1	> 100	> 100 µM	95.5	–	> 100 µM	–	–	–	–	> 100	–	–	> 100	–	–	–	–	–	–	–
CC(=O)OC1CCn2nnc(CO)c21 (stereo not given)	> 100	> 100 µM	–	> 100	–	–	–	–	–	> 100	–	–	> 100	–	–	–	–	–	–	–
CC(=O)OC[C@]1(C)CCCC2(C)C1CCC1C=C(C)[C@H]3CCC12C3 (stereo not given in full)	> 100	> 100 µM	> 100	> 100	> 100 µM	–	–	–	–	> 100	–	–	> 100	–	–	–	–	–	–	–
O=C1Cc2c([nH]c3ccccc23)-c2ccccc2N1	> 100	94.3 µM	> 100	67.4	37.7 µM	–	–	–	–	31.9	–	–	–	–	–	–	–	–	–	–
CCN(CC)CCCNC(=O)C1COc2cc(-c3cc(=O)c4ccccc4o3)ccc2O1 (stereo not given)	> 100	> 100 µM	> 100	> 100	48.2 µM	–	–	–	–	> 100	–	–	> 100	–	–	–	–	–	–	–
Cc1nc(C(N)=S)sc1C(=O)CC(=O)C(=O)Nc1ccccc1[N+](=O)[O-]	> 100	> 100 µM	> 100	> 100	> 100 µM	–	–	–	–	> 100	–	–	> 100	–	–	–	–	–	–	–
CCOC(=O)/C(=C\c1ccc(N(CCC#N)CCC#N)cc1)NC(=O)c1cc([N+](=O)[O-])ccc1Cl	> 100	> 100 µM	> 100	> 100	> 100 µM	–	–	–	–	> 100	–	–	> 100	–	–	–	–	–	–	–
COc1ccc(-c2oc(=O)ccc2-c2cc(OC)c(OC)c(OC)c2)cc1O	> 100	> 100 µM	> 72.1	> 100	45.3 µM	4.76 µM	12.7 µM	2.8 µM	> 100	> 86.6	–	–	> 49.9	2.01	2.04	0.736	1.65	1.23	1.52	> 38.5
O=S(=O)(NCCCNc1nccc(-c2c(-c3ccc(F)c(O)c3)nc3sccn23)n1)c1ccc(F)cc1	> 100	5.57 µM	–	> 100	5.53 µM	3.33 µM	3.41 µM	–	–	–	0.636 µM	3.35 µM	–	1.73	–	–	0.578	–	1.84	7.14
CN1CC(=O)N(C)c2ncn(Cc3ccccc3)c2C1=O	> 100	> 100 µM	> 100	–	> 100 µM	–	–	–	–	–	–	–	> 100	–	–	–	–	–	–	–
COc1ccccc1C(O)(c1ccccc1)C(O)(c1ccccc1)c1ccccc1OC (stereo not given)	> 100	> 100 µM	> 100	> 100	> 100 µM	–	–	–	–	> 100	–	–	> 100	–	–	–	–	–	–	–

Compound	TGI (SNB-19 CNS) [µM]	TGI (MOLT-4 leukemia)	TGI (SF-268 CNS) [µM]	TGI (OVCAR-5 ovarian) [µM]	TGI (LOX IMVI melanoma)	GI50 (SNB-19 CNS)	GI50 (OVCAR-5 ovarian)	GI50 (MDA-MB-231 breast)	TGI (MDA-MB-231 breast) [µM]	TGI (HCT-116 colon) [µM]	GI50 (MDA-MB-435)	TGI (MDA-MB-435)	TGI (UACC-62 melanoma) [µM]	GI50 (MOLT-4 leukemia) [µM]	GI50 (SF-268 CNS) [µM]	GI50 (HCT-116 colon) [µM]	GI50 (LOX IMVI melanoma) [µM]	GI50 (UACC-62 melanoma) [µM]	GI50 (BT-549 breast) [µM]	TGI (BT-549 breast) [µM]
CC(=O)NC1=C(NC(C)(C)C)C(=O)c2ccccc2C1=O	> 100	26.7 µM	55.6	> 100	30.8 µM	–	–	–	–	64.2	–	–	27.3	–	–	–	–	–	–	–
C=C(C#N)C1OCC2OC(C)(C)OC21 (stereo not given)	> 100	43.3 µM	52.5	33.9	30.4 µM	–	–	–	–	38.4	–	–	31.9	–	–	–	–	–	–	–
COc1ccc(-c2cc(=O)c3ccccc3o2)cc1N	> 100	> 100 µM	> 100	> 100	> 100 µM	–	–	–	–	> 100	–	–	> 100	–	–	–	–	–	–	–
COc1ccc(/C(=N\NC(=O)C(=O)NN)C(c2ccc(OC)cc2)C2(O)C(=O)Nc3ccccc32)cc1 (stereo not given)	> 100	> 100 µM	> 100	> 100	–	–	–	–	–	> 100	–	–	> 100	–	–	–	–	–	–	–
Cn1nc(-c2ccccc2)c(C(=O)/C=C/c2ccc(Cl)cc2)c(N2CCCCC2)c1=O	4.72	4.65 µM	–	–	6.09 µM	–	–	–	–	3.47	–	–	5.82	–	–	–	–	–	–	–
C[C@]12CCC(=O)C(O)=C1CC[C@@H]1C2CC[C@]2(C)NC(=O)CCC12 (stereo not given in full)	> 100	> 100 µM	> 100	> 100	> 100 µM	–	–	–	–	> 100	–	–	> 100	–	–	–	–	–	–	–
CC(C)(C)CC(C)(C)c1cc2c(O)c(c1)Cc1cc(C(C)(C)CC(C)(C)C)cc(c1O)Cc1cc(C(C)(C)CC(C)(C)C)cc(c1O)Cc1cc(C(C)(C)CC(C)(C)C)cc(c1O)Cc1cc(C(C)(C)CC(C)(C)C)cc(c1O)C2	> 100	> 100 µM	> 100	> 100	–	–	–	–	–	> 100	–	–	> 100	–	–	–	–	–	–	–
Cc1cccc(C)c1CO	> 100	> 100 µM	> 100	> 100	> 100 µM	–	–	–	–	> 100	–	–	> 100	–	–	–	–	–	–	–
CC1=C[C@]2(O)C(=O)[C@H](C)C[C@H]3[C@@H](CC[C@@](C)(O)/C=C\2C1=O)C3(C)C	> 100	> 62 µM	52.1	> 100	34.6 µM	–	–	–	–	30.9	–	–	30.6	–	–	–	–	–	–	–
CCOc1ccc(N=Cc2ccc3cc(C)ccc3n2)cc1	> 100	76.7 µM	> 100	> 100	> 100 µM	–	–	–	–	–	–	–	> 100	–	–	–	–	–	–	–
O=C(c1ccccc1)c1c(-c2ccccc2)sc2nc3ccccc3nc12	> 100	> 100 µM	> 100	> 100	–	–	–	–	–	> 100	–	–	> 100	–	–	–	–	–	–	–
CC(=O)[CH-]C(=O)c1ccccc1.CC(=O)[CH-]C(=O)c1ccccc1.CC(C)CCCC(C)[C@H]1CCC2[C@@H]3CC=C4C[C@@H]([O-])CC[C@]4(C)C3CC[C@@]21C.CC(C)CCCC(C)[C@H]1CCC2[C@@H]3CC=C4C[C@@H]([O-])CC[C@]4(C)C3CC[C@@]21C.[Ti+4] (stereo not given in full)	–	> 100 µM	> 100	–	–	–	–	–	–	> 100	–	–	> 100	> 100	> 100	> 100	–	> 100	–	–
Cc1ccc(/C(O)=C/c2nc3c(nc2NC24CC5CC(CC(C5)C2)C4)c(=O)oc2ccccc23)cc1	> 100	> 100 µM	> 100	> 100	> 100 µM	–	–	–	–	> 100	–	–	> 100	–	–	–	–	–	–	–
O=C(O)Cc1cc(=O)[nH]c2c1/C(=N/O)CCC2	> 100	> 100 µM	> 100	> 100	–	–	–	–	–	–	–	–	–	–	–	–	–	–	–	–
CC(C)[O-].CC(C)[O-].O=C1C=C([O-])C(=O)c2ccccc21.O=C1C=C([O-])C(=O)c2ccccc21.[Ti+4]	> 100	> 100 µM	> 100	> 100	> 100 µM	> 100 µM	> 100 µM	–	–	> 100	–	–	> 100	> 100	> 100	43.7	5.21	17.6	–	–
COc1ccc(NC(=O)CC/C(CC(=O)C(C)(C)C)=N\NC(=O)C(=O)NN)cc1	> 100	> 100 µM	> 100	> 100	> 100 µM	–	–	–	–	> 100	–	–	> 100	–	–	–	–	–	–	–
O=C(CC(C(=O)c1cccs1)c1cccs1)c1ccsc1 (stereo not given)	> 100	> 100 µM	> 100	> 100	> 100 µM	–	–	–	> 100	> 100	–	43.1 µM	> 100	–	–	–	–	–	–	–
